In this experiment the target is Human α2δ-1 subunit of Cav2.2 calcium channel (Homo sapiens (Human), UniProt P54289). As to the kind of experiment: Binding Assay to Human α2δ-1 Subunit of Cav2.2 Calcium Channel. The settings on record: Table 1; human α2δ-1 enriched membranes, 15 nM [3H]-Gabapentin; read-out: Ki(nM) alpha2delta Hum. The procedure:
Binding Assay to Human α2δ-1 Subunit of Cav2.2 Calcium Channel.
NSB (non specific binding) was measured by adding 10 μM pregabalin. The binding of the test compound was measured in five different concentrations. After 60 min incubation at 27° C., binding reaction was terminated by filtering through Multiscreen GF/C (Millipore) presoaked in 0.5% polyethyleneimine in Vacuum Manifold Station, followed by 3 washes with ice-cold filtration buffer containing 50 mM Tris-HCl, pH 7.4.
Filter plates were dried at 60° C. for 1 hour and 30 μl of scintillation cocktail were added to each well before radioactivity reading.
Sequence of Human α2δ-1 subunit of Cav2.2 calcium channel (P54289 25-1103): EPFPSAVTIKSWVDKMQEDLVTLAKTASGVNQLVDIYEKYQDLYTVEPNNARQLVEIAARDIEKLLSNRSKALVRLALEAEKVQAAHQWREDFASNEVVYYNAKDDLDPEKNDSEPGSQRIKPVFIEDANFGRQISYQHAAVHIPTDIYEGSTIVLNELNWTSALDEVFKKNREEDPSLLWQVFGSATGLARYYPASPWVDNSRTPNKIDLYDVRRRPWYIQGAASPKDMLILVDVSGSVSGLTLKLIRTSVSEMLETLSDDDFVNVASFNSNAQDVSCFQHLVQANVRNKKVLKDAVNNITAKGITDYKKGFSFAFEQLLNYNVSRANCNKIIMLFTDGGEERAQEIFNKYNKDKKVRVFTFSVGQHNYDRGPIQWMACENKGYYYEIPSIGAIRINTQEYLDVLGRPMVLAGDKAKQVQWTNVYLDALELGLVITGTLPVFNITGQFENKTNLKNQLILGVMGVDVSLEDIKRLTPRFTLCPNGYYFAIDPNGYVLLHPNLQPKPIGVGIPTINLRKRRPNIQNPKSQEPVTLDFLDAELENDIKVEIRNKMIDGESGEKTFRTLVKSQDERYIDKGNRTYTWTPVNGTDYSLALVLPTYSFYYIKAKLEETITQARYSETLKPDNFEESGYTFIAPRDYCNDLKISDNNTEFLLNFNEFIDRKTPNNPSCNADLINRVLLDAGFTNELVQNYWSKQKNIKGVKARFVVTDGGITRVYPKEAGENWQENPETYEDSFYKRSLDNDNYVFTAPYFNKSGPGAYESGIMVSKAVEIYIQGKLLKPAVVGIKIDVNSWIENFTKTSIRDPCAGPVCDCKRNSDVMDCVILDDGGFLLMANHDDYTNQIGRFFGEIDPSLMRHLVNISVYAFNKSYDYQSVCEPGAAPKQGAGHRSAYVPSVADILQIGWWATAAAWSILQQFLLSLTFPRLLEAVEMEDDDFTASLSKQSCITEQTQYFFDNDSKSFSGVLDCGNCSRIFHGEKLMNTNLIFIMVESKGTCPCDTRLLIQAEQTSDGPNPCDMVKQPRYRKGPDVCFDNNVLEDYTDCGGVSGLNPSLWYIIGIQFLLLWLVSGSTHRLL
Regarding `CNCC[C@H](Oc1ccc(CN2CCN(C)c3ncc(F)cc3C2=O)c(C)c1)c1cccs1` [Example 125, (S)-7-fluoro-1-methyl-4-(2-methyl-4-(3-(methylamino)-1-(thiophen-2-yl)propoxy)benzyl)-1,2,3,4-tetrahydro-5H-pyrido[2,3-e][1,4]diazepin-5-one], the Ki was below 100 nM.

With `CCNC[C@H]1CN(C)CCN(c2cccc(O[C@@H](CCNC)c3ccccc3)c2)C1=O` [Example 24, (S)-6-((ethylamino)methyl)-1-methyl-4-(3-((S)-3-(methylamino)-1-phenylpropoxy)phenyl)-1,4-diazepan-5-one], the Ki was above 3000 nM.

Turning to `CNCCC(OCc1cccc(N2CCN(C)c3ccccc3C2=O)c1)c1ccccc1` (stereo not drawn) [Example 38, 1-Methyl-4-(3-((3-(methylamino)-1-phenylpropoxy)methyl)phenyl)-1,2,3,4-tetrahydro-5H-benzo[e][1,4]diazepin-5-one], the Ki lay within 500 to 3000 nM.

On to `CCN[C@@H]1CCCCN(c2cccc(O[C@@H](CCNC)c3cccs3)c2)C1=O` [Example 18, (R)-3-(ethylamino)-1-(3-((S)-3-(methylamino)-1-(thiophen-2-yl)propoxy)phenyl)azepan-2-one], for which the Ki lay in the range of 500 to 3000 nM.

As to `CNCC[C@@H](OCc1cccc(N2CCN(C)c3ccccc3C2=O)c1)c1ccccc1` [Example 47, (R)-1-methyl-4-(3-((3-(methylamino)-1-phenylpropoxy)methyl)phenyl)-1,2,3,4-tetrahydro-5H-benzo[e][1,4]diazepin-5-one], the Ki fell in the range of 500 to 3000 nM.

For the molecule `CNCCC(Oc1cccc(N2CCCN(C)CC2)c1)c1cccs1` (stereo not drawn) [Example 8, N-methyl-3-(3-(4-methyl-1,4-diazepan-1-yl)phenoxy)-3-(thiophen-2-yl)propan-1-amine], the Ki is 100 to 500 nM.

Take `CNCCC(Oc1cccc(N2CCCCCC2=O)c1)c1cccs1` (stereo not drawn) [Example 17, 1-(3-(3-(Methylamino)-1-(thiophen-2-yl)propoxy)phenyl)azepan-2-one]: the Ki was above 3000 nM.

In the case of `CNCC[C@@H](OCc1cccc(N2C[C@@H]3CCCN3c3ccccc3C2=O)c1)c1ccccc1` [Example 31, (S)-5-(3-(((R)-3-(methylamino)-1-phenylpropoxy)methyl)phenyl)-1.2,3,3a,4,5-hexahydro-6H-benzo[f]pyrrolo[1,2-a][1,4]diazepin-6-one], the Ki lay in the range of 500 to 3000 nM.

On to `CNCCC(Oc1cccc(N2CCCN(C)CC2)c1)c1ccccc1` (stereo not drawn) [Example 5, N-methyl-3-(3-(4-methyl-1,4-diazepan-1-yl)phenoxy)-3-phenylpropan-1-amine], for which the Ki was 500 to 3000 nM.

In the case of `CNCCC(OCc1cccc(N2CCN(C)c3ccccc3C2=O)c1)c1cccc(F)c1` (stereo not drawn) [Example 40, 4-(3-((1-(3-Fluorophenyl)-3-(methylamino)propoxy)methyl)phenyl)-1-methyl-1,2,3,4-tetrahydro-5H-benzo[e][1,4]diazepin-5-one], the Ki was in the range of 500 to 3000 nM.

For `CNCC[C@H](Oc1ccc(CN2CCN(C)c3ncccc3C2=O)c(C(F)(F)F)c1)c1ccccc1` [Example 130, (S)-1-methyl-4-(4-(3-(methylamino)-1-phenylpropoxy)-2-(trifluoromethyl)benzyl)-1,2,3,4-tetrahydro-5H-pyrido[2,3-e][1,4]diazepin-5-one], the Ki is below 100 nM.

For the molecule `CNCCC(Oc1cccc(N2CCN(C)c3cc(F)cnc3C2=O)c1)c1cccs1` (stereo not drawn) [Example 74, 8-Fluoro-1-methyl-4-(3-(3-(methylamino)-1-(thiophen-2-yl)propoxy)phenyl)-1,2,3,4-tetrahydro-5H-pyrido[3,2-e][1,4]diazepin-5-one], the Ki was above 3000 nM.

Consider `CNCCC(OCc1cccc(N2CCN(C)c3nc(C)ccc3C2=O)c1)c1ccccc1` (stereo not drawn) [Example 48, 1,8-Dimethyl-4-(3-((3-(methylamino)-1-phenylpropoxy)methyl)phenyl)-1,2,3,4-tetrahydro-5H-pyrido[2,3-e][1,4]diazepin-5-one], for which the Ki is 500 to 3000 nM.

`CNCCC(OCc1cccc(N2CCN(C)c3cnccc3C2=O)c1)c1ccccc1` (stereo not drawn) [Example 28, 1-Methyl-4-(3-((3-(methylamino)-1-phenylpropoxy)methyl)phenyl)-1,2,3,4-tetrahydro-5H-pyrido[3,4-e][1,4]diazepin-5-one]: the Ki lay within 500 to 3000 nM.

In the case of `CNCCC(Oc1cccc(N2CCN(C)c3cccnc3C2=O)c1)c1cccs1` (stereo not drawn) [Example 57, 1-Methyl-4-(3-(3-(methylamino)-1-(thiophen-2-yl)propoxy)phenyl)-1,2,3,4-tetrahydro-5H-pyrido[3,2-e][1,4]diazepin-5-one], the Ki was in the range of 500 to 3000 nM.

As to `CNCCC(Oc1ccc(CN2CCN(C)c3ccccc3C2=O)cc1)c1ccccc1` (stereo not drawn) [Example 112, 1-Methyl-4-(4-(3-(methylamino)-1-phenylpropoxy)benzyl)-1,2,3,4-tetrahydro-5H-benzo[e][1,4]diazepin-5-one], the Ki was above 3000 nM.

For `CCNC[C@H]1CC(=O)N(c2cccc(O[C@@H](CCNC)c3ccccc3)c2)CCN1C` [Example 22, (R)-7-((ethylamino)methyl)-1-methyl-4-(3-((S)-3-(methylamino)-1-phenylpropoxy)phenyl)-1,4-diazepan-5-one], the Ki is above 3000 nM.

As to `CNCC[C@H](OCc1cccc(N2CCCN(C)CC2)c1)c1ccccc1` [Example 12, (S)-N-methyl-3-((3-(4-methyl-1,4-diazepan-1-yl)benzyl)oxy)-3-phenylpropan-1-amine], the Ki was above 3000 nM.

Turning to `CNCCC(Oc1cccc(N2CCN(C)c3ccccc3C2)c1)c1cccs1` (stereo not drawn) [Example 9, N-methyl-3-(3-(1-methyl-1,2,3,5-tetrahydro-4H-benzo[e][1,4]diazepin-4-yl)phenoxy)-3-(thiophen-2-yl)propan-1-amine], the Ki is above 3000 nM.

Turning to `CNCCC(Oc1cccc(C(=O)N2CCN(C)c3ccccc3C2)c1)c1cccs1` (stereo not drawn) [Example 4, (1-Methyl-1,2,3,5-tetrahydro-4H-benzo[e][1,4]diazepin-4-yl)(3-(3-(methylamino)-1-(thiophen-2-yl)propoxy)phenyl)methanone], the Ki fell in the range of 500 to 3000 nM.

For the molecule `CNCCC(Oc1cccc(C(=O)N2CCCN(C)CC2)c1)c1cccs1` (stereo not drawn) [Example 2, (4-Methyl-1,4-diazepan-1-yl)(3-(3-(methylamino)-1-(thiophen-2-yl)propoxy)phenyl)methanone], the Ki lay in the range of 500 to 3000 nM.

As to `CNCC[C@H](OCc1cccc(N2CCN(C)c3ccccc3C2=O)c1)c1cccc(F)c1` [Example 42, (S)-4-(3-((1-(3-fluorophenyl)-3-(methylamino)propoxy)methyl)phenyl)methyl-1 2,3,4-tetrahydro-5H-benzo[e][1,4]diazepin-5-one], the Ki fell in the range of 500 to 3000 nM.

For `CNCCC(Oc1cccc(N2CCNCCC2=O)c1)c1cccs1` (stereo not drawn) [Example 59, 4-(3-(3-(Methylamino)-1-(thiophen-2-yl)propoxy)phenyl)-1,4-diazepan-5-one], the Ki lay within 500 to 3000 nM.

Turning to `CNCCC(Oc1cccc(CN2CCN(C)c3ccccc3C2=O)c1)c1cccs1` (stereo not drawn) [Example 106, 1-Methyl-4-(3-(3-(methylamino)-1-(thiophen-yl)propoxy)benzyl)-1,2,3,4-tetrahydro-5H-benzo[e][1,4]diazepin-5-one], the Ki lay within 500 to 3000 nM.

As for `CNCC[C@@H](OCc1cccc(N2CCCN(C)CC2)c1)c1ccccc1` [Example 13, (R)-N-methyl-3-((3-(4-methyl-1,4-diazepan-1-yl)benzyl)oxy)-3-phenylpropan-1-amine], the Ki was in the range of 500 to 3000 nM.

As for `CCNC1CCCN(c2cccc(O[C@@H](CCNC)c3cccs3)c2)C(=O)C1` (single isomer, unassigned) [Example 118a], the Ki lay within 500 to 3000 nM.

In the case of `CNCC[C@H](Oc1ccc(CN2CCN(C)c3c(ccnc3OC)C2=O)c(F)c1)c1ccccc1` [Example 146, (S)-4-(2-fluoro-4-(3-(methylamino)-1-phenylpropoxy)benzyl)-9-methoxy-1-methyl-1,2,3,4-tetrahydro-5H-pyrido[3,4-e][1,4]diazepin-5-one], the Ki was above 3000 nM.

On to `CCNC1CCCN(c2cccc(O[C@@H](CCNC)c3cccs3)c2)C(=O)C1` (single isomer, unassigned) [Example 118b], for which the Ki is 500 to 3000 nM.

With `CCNc1ccc2c(n1)N(C)CCN(Cc1ccc(O[C@H](CCNC)c3cccc(F)c3)cc1F)C2=O` [Example 147, (R)-8-(ethylamino)-4-(2-fluoro-4-(1-(3-fluorophenyl)-3-(methylamino)propoxy)benzyl)-1-methyl-1,2,3,4-tetrahydro-5H-pyrido[2,3-e][1,4]diazepin-5-one], the Ki is above 3000 nM.

Regarding `CCNC[C@@H]1CN(C)CCN(c2cccc(O[C@@H](CCNC)c3ccccc3)c2)C1=O` [Example 25, (R)-6-((ethylamino)methyl)-1-methyl-4-(3-((S)-3-(methylamino)-1-phenylpropoxy)phenyl)-1,4-diazepan-5-one], the Ki is above 3000 nM.

On to `CNCC[C@H](Oc1ccc(CN2CCN(C)c3ncccc3C2=O)c(C(F)(F)F)c1)c1cccs1` [Example 127, (S)-1-methyl-4-(4-(3-(methylamino)-1-(thiophen-2-yl)propoxy)-2-(trifluoromethyl)benzyl)-1,2,3,4-tetrahydro-5H-pyrido[2,3-e][1,4]diazepin-5-one], for which the Ki was below 100 nM.

In the case of `CNCCC(Oc1ccc(CN2CCN(C)CCC2=O)c(F)c1)c1cccs1` (stereo not drawn) [Example 122, 4-(2-Fluoro-4-(3-(methylamino)-1-(thiophen-2-yl)propoxy)benzyl)-1-methyl-1,4-diazepan-5-one], the Ki lay within 100 to 500 nM.

Turning to `CCNCC(=O)N1CCCN(c2cccc(OC(CCNC)c3cccs3)c2)CC1` (stereo not drawn) [Example 11, 2-(Ethylamino)-1-(4-(3-(3-(methylamino)-1-(thiophen-2-yl)propoxy)phenyl)-1,4-diazepan-1-yl)ethan-1-one], the Ki lay within 500 to 3000 nM.
